# Measured values from patent US20240342199A1, “COMBINATION THERAPIES TARGETING MITOCHONDRIA FOR CANCER THERAPY” (The Wistar Institute of Anatomy and Biology, priority 2014, published 2024).
# Columns and labels:
# [1] = tested on: Ser473-phosphorylated Akt (pAkt); assay: Ser473-phosphorylated Akt in patient-derived organotypic cultures; format: cell-based, Human; conditions: tumor organoids, 48 h
# Experimental: Organotypic cultures. Short-term organotypic cultures from the different patient samples were established as described previously. Briefly, precise thick tissue slices (300 μm) were obtained from each case by vibratome serial cutting (VT1200, Leica Microsystems, Milan, Italy), and cultured in six-well plates on organotypic inserts (Millicell PICM ORG, Merck Millipore) for up to 48 h in 1 ml of Ham-F12 complete medium supplemented with vehicle (DMSO, 2.5 μl), pan-PI3K inhibitor LY294002 (50 or 100 μM) or PX-886 (2.5, 5 or 10 μM), or mitochondrial-targeted small molecule Heat Shock Protein-90 (Hsp90) inhibitor, 10 Gamitrinib (GA mitochondrial matrix inhibitor, 10 or 25 μM), or the combination of PX-886 plus Gamitrinib (each agent used at 10 μM). At the end of the experiment, one tissue slice per condition was formalin-fixed and paraffin-embedded (FFPE), and processed for morphological and immunohistochemical analysis. An additional tissue slice collected at the end of the experiment was embedded in optimal cutting temperature, and snap-frozen for molecular or immunofluorescence studies.
# [2] = tested on: Akt2 (Ser474) in cytosol and mitochondria; assay: Phosphorylated Akt in cytosol and mitochondrial extracts by Western blotting; format: cell-based, Human; conditions: pretreatment with 17-AAG; cytosol and mitochondria
# Experimental: Subcellular and submitochondrial fractionation. Mitochondrial fractions were isolated using an ApoAlertTM cell fractionation kit (CLONTECH), as described. Submitochondrial fractions comprising outer membrane (OM), inner membrane (IM), inter-membrane space (IMS) and matrix were prepared as described.
# LN229 or PC3 cells = assay: Analysis of bioenergetics (ATP, glucose, lactate, oxygen consumption); format: cell-based, Human; conditions: PX-866 (10 μM), AZD6482 (10 μM) or GDC0941 (2 μM) for 48 h
# LN229 cells = assay: High-throughput screening: cell viability (resazurin), compounds with DMSO or Gamitrinib; format: cell-based, Human; conditions: for inhibition at 0.000128 µM / inhibition at 0.00064 µM / inhibition at 0.0032 µM / inhibition at […] / inhibition at 0.08 µM / inhibition at 0.4 µM / inhibition at 2 µM / inhibition at 10 µM: Homo sapiens, LN-229, read-out: Percent inhibition; for inhibition at 0.000128 µM: compound 0.000128 uM + DMSO (control); for inhibition at 0.00064 µM: compound 0.00064 uM + DMSO (control); for inhibition at 0.0032 µM: compound 0.0032 uM + DMSO (control); for inhibition at […]: compound 0.016 uM + DMSO (control); for inhibition at 0.08 µM: compound 0.08 uM + DMSO (control); for inhibition at 0.4 µM: compound 0.4 uM + DMSO (control); for inhibition at 2 µM: compound 2 uM + DMSO (control); for inhibition at 10 µM: compound 10 uM + DMSO (control)
# Experimental: High-throughput screening and synergy experiments. Compounds for the molecular targeted cancer therapeutics were either purchased from SelleckChem or acquired under Material Transfer Agreement (MTA) with the Wistar Institute MTA. Compounds were suspended in DMSO. The purity and identity of the compounds was confirmed by LC/MS for a fraction of the compounds. Source plates with a 10 point dilution series (5-fold dilutions, ranging from 10-0.0001 μmol/L) were prepared for screening. […] Cell viability was determined by the addition of resazurin to a final concentration of 50 μM and incubation for 8 h. Fluorescence intensity (excitation, 560 nm, emission, 590 nm) was determined on an Envision Xcite Multilabel Reader (Perkin-Elmer), and the fractional growth inhibition was determined by normalizing assay wells to the aggregated average responses of positive control (10 μM doxorubicin) and negative control (0.2% DMSO) treatments (n=12).
# Akt phosphorylation = Akt phosphorylation in tumor cell lines by Western blotting; format: cell-based, Human; conditions: PC3 cells, AZD6482 (10 μM), (0.4-2 μM) or BKM120 (0.4-2 μM), 48 h
# class I PI3K isoforms = conditions: cited from earlier work
# [3] = compound 0.000128 uM + Gamitrinib (1 μM)
# [4] = compound 0.00064 uM + Gamitrinib (1 μM)
# [5] = compound 0.0032 uM + Gamitrinib (1 μM)
# [6] = compound 0.08 uM + Gamitrinib (1 μM)
# [7] = compound 0.4 uM + Gamitrinib (1 μM)
# [8] = compound 2 uM + Gamitrinib (1 μM)
# [9] = compound 10 uM + Gamitrinib (1 μM)
# [10] = compound 2.56E−05 uM + DMSO (control)
# [11] = compound 2.56E−05 uM + Gamitrinib (1 μM)
# [12] = compound 5.12E−06 uM + DMSO (control)
# [13] = compound 5.12E−06 uM + Gamitrinib (1 μM)
# [14] = compound […] + Gamitrinib (1 μM)
Structure (SMILES),inhibition at 0.000128 µM (LN229 cells) [%],inhibition at 0.00064 µM (LN229 cells) [%],inhibition at 0.0032 µM (LN229 cells) [%],inhibition at […] (LN229 cells) [%],inhibition at 0.08 µM (LN229 cells) [%],inhibition at 0.4 µM (LN229 cells) [%],inhibition at 2 µM (LN229 cells) [%],inhibition at 10 µM (LN229 cells) [%],Percent inhibition (LN229 cells; [3]) [%],Percent inhibition (LN229 cells; [4]) [%],Percent inhibition (LN229 cells; [5]) [%],Percent inhibition (LN229 cells; [6]) [%],Percent inhibition (LN229 cells; [7]) [%],Percent inhibition (LN229 cells; [8]) [%],Percent inhibition (LN229 cells; [9]) [%],Percent inhibition (LN229 cells; [10]) [%],Percent inhibition (LN229 cells; [11]) [%],Percent inhibition (LN229 cells; [12]) [%],Percent inhibition (LN229 cells; [13]) [%],Percent inhibition (LN229 cells; [14]) [%],other results
"C=CCNC1=C2C[C@@H](C)C[C@H](OC)[C@H](O)[C@@H](C)/C=C(\C)[C@H](OC(N)=O)[C@@H](OC)/C=C\C=C(/C)C(=O)NC(=CC1=O)C2=O [17-AAG, 17-(allylamino)-17-demethoxygeldanamycin]",–,–,–,–,–,–,–,–,–,–,–,–,–,–,–,–,–,–,–,–,phosphorylation of Akt on Ser473 [1]: had no effect; accumulation of phosphorylated Akt in response to PX-866 [2]: abolished the accumulation of phosphorylated Akt
Cc1cc([C@@H](C)Nc2ccccc2C(=O)O)c2nc(N3CCOCC3)cc(=O)n2c1 [AZD6482],11.8,-10.5,-4.1,10.8,21.7,-7.43,5.91,43.4,123.03,128.16,123.40,111.71,114.08,133.90,141.10,−2.03,119.70,3.23,129.84,118.13,ATP production (LN229 or PC3 cells): reduced ATP production; glucose utilization (LN229 or PC3 cells): less glucose utilization; lactate production (LN229 or PC3 cells): less; Akt phosphorylation (Akt phosphorylation): Akt phosphorylation was observed
COc1ncc(-c2ccc3nccc(-c4ccnnc4)c3c2)cc1NS(=O)(=O)c1ccc(F)cc1F [GSK458],8.89,11.3,38.1,52.4,67.5,58.1,63.1,53.6,135.48,139.64,139.92,133.47,138.84,142.85,156.27,1.66,128.82,17.03,132.69,136.49,–
CS(=O)(=O)N1CCN(Cc2cc3nc(-c4cccc5[nH]ncc45)nc(N4CCOCC4)c3s2)CC1 [GDC0941],-14.7,7.03,-17.3,-0.14,21.2,29.8,58.9,64.8,124.43,133.55,19.20,121.46,134.46,140.39,156.27,−27.15,104.45,0.41,125.94,126.85,ATP production (LN229 or PC3 cells): reduced ATP production; glucose utilization (LN229 or PC3 cells): less glucose utilization; lactate production (LN229 or PC3 cells): less; Akt phosphorylation (Akt phosphorylation): Akt phosphorylation was observed
FC(F)c1nc2ccccc2n1-c1nc(N2CCOCC2)nc(N2CCOCC2)n1 [ZSTK474],–,–,–,–,–,–,–,–,–,–,–,–,–,–,–,–,–,–,–,–,"PI3K activity (class I PI3K isoforms; 1 μM): 4.7 % of the control level; IC50 (class I PI3K isoforms; class I PI3K isoforms, mostly PI3Kδ): 0.037 µM"
Nc1cc(C(F)(F)F)c(-c2cc(N3CCOCC3)nc(N3CCOCC3)n2)cn1 [BKM120],4.38,16.2,3.42,8.78,17.7,50.4,54.9,61.7,132.78,130.27,140.77,153.91,150.75,151.13,152.02,19.80,136.65,14.64,130.32,138.62,Akt phosphorylation (Akt phosphorylation): Akt phosphorylation was observed
Cn1c(=O)n(-c2ccc(C(C)(C)C#N)cc2)c2c3cc(-c4cnc5ccccc5c4)ccc3ncc21 [BEZ235],-21.4,23.8,60.7,74.6,62.6,65.1,67.6,71.6,122.82,127.29,134.66,133.41,140.20,137.11,141.44,−9.35,121.84,−7.25,119.42,145.76,–
